These are literature values, as cited in patent US20240415845A1, “Compositions of Iboga Alkaloids and Methods of Treatment” (priority 2022, published 2024).

For this series the following is noted: in vivo; cited from earlier work.

For orientation: half-life means the time in which the quantity being followed falls by half. As for `CC[C@H]1CC2C[C@H]3c4[nH]c5ccc(O)cc5c4CCN(C2)C13` [noribogaine, Noribogaine], the half-life was 28 to 49 h.
